Reference: patent US20080261936A1, “METHODS OF REDUCING THE BODY WEIGHT OF A SUBJECT BY ADMINISTERING A FATTY ACID ESTER OF AN ESTROGEN OR ESTROGEN DERIVATIVE IN AN OIL AND COMPOSITIONS CONTAINING THE SAME” (Manhattan Pharmaceuticals, Inc., priority 2006, published 2008)
Values after ≈ are worked out from the molar mass of the structure shown.

Key:
[1] = Oil evaluation: solubility behavior of oleoyl-estrone, 60 mg/g in single oils; format: physicochemical; settings: for solubility at 96 h: oil or lipid, after 96 hr, more oil added
Method: (§1) An oil evaluation was done to determine the solubility behavior of oleoyl-estrone as a function of type of oil, concentration and temperature. The solubility of oleoyl-estrone was evaluated at concentrations of 60 mg/g and 200 mg/g. […]

[2] = Oil evaluation: solubility behavior of oleoyl-estrone, 200 mg/g in single oils; format: physicochemical
Method: as §1

[3] = 60 mg/g in Canola at RT (about 22° C.)
[4] = 60 mg/g in Captex 300-6C at RT (about 22° C.)
[5] = 60 mg/g in Captex 300 EP at RT (about 22° C.)
[6] = 60 mg/g in Corn at RT (about 22° C.)
[7] = 60 mg/g in Labrafac at RT (about 22° C.)
[8] = 60 mg/g in Labrasol at RT (about 22° C.)
[9] = 60 mg/g in Olive at RT (about 22° C.)
[10] = 60 mg/g in Safflower at RT (about 22° C.)
[11] = 60 mg/g in Sesame at RT (about 22° C.)
[12] = 60 mg/g in Soybean at RT (about 22° C.)
[13] = 200 mg/g in Captex 300-6C at 40° C.
[14] = 200 mg/g in Captex 300 EP at 40° C.
[15] = 200 mg/g in Labrafil 1944 CS at 40° C.
[16] = 200 mg/g in Safflower at 40° C.

What does the source list for `CCCCCCCC/C=C\CCCCCCCC(=O)Oc1ccc2c(c1)CC[C@@H]1[C@@H]2CC[C@]2(C)C(=O)CC[C@@H]12` [oleoyl-estrone, [3(Z)]-3-[(1-oxo-9-octadecenyl)oxy]-estra-1,3,5(10)-trien-17-one]?
Solubility Cycled to 5° C. after 96 hr ([1]; 60 mg/g in Canola): Dissolved; Solubility After 24 hr [1, 3]: Dissolved; Solubility After 96 hr [1, 3]: Dissolved; Solubility Cycled to 5° C. after 96 hr ([1]; 60 mg/g in Captex 300-6C): Dissolved; Solubility After 24 hr [1, 4]: Dissolved; Solubility After 96 hr [1, 4]: Dissolved; Solubility Cycled to 5° C. after 96 hr ([1]; 60 mg/g in Captex 300 EP): Dissolved; Solubility After 24 hr [1, 5]: Dissolved; Solubility After 96 hr [1, 5]: Dissolved; Solubility Cycled to 5° C. after 96 hr ([1]; 60 mg/g in Corn): Dissolved; Solubility After 24 hr [1, 6]: Dissolved; Solubility After 96 hr [1, 6]: Dissolved; Solubility Cycled to 5° C. after 96 hr ([1]; 60 mg/g in Labrafac): Dissolved; Solubility After 24 hr [1, 7]: Dissolved; Solubility After 96 hr [1, 7]: Dissolved; Solubility Cycled to 5° C. after 96 hr ([1]; 60 mg/g in Labrafil 1944 CS): Dissolved; Solubility After 96 hr ([1]; 60 mg/g in Labrafil 1944 CS at RT (about 22° C.)): NOT Dissolved more oil; Solubility Cycled to 5° C. after 96 hr ([1]; 60 mg/g in Labrafil M 125CS): Dissolved; Solubility After 96 hr ([1]; 60 mg/g in Labrafil M 125CS at RT (about 22° C.)): NOT Dissolved more oil; Solubility After 24 hr [1, 8]: Dissolved; Solubility After 96 hr [1, 8]: Dissolved; Solubility Cycled to 5° C. after 96 hr ([1]; 60 mg/g in Olive): Dissolved; Solubility After 24 hr [1, 9]: Dissolved; Solubility After 96 hr [1, 9]: Dissolved; Solubility Cycled to 5° C. after 96 hr ([1]; 60 mg/g in Safflower): Dissolved; Solubility After 24 hr [1, 10]: Dissolved; Solubility After 96 hr [1, 10]: Dissolved; Solubility Cycled to 5° C. after 96 hr ([1]; 60 mg/g in Sesame): Dissolved; Solubility After 24 hr [1, 11]: Dissolved; Solubility After 96 hr [1, 11]: Dissolved; Solubility Cycled to 5° C. after 96 hr ([1]; 60 mg/g in Soybean): Dissolved; Solubility After 24 hr [1, 12]: Dissolved; Solubility After 96 hr [1, 12]: Dissolved; solubility at 96 h ([1]; Labrafil 1944 CS (oil), in Labrafil 1944 CS at RT (about 22° C.)): ~5000 µg/mL (≈ 9.35 mM); solubility at 96 h ([1]; Labrafil M 125CS (oil), in Labrafil M 125CS at RT (about 22° C.)): ≤ 3000 µg/mL; Solubility Cycled to 22° C. for 24 hr prior to 5° C. cycle for 96 hr ([2]; 200 mg/g in Canola): Dissolved; Solubility After 24 hr ([2]; 200 mg/g in Canola at 40° C.): Dissolved; Solubility After 96 hr ([2]; 200 mg/g in Canola at 40° C.): Dissolved; Solubility Cycled to 22° C. for 24 hr prior to 5° C. cycle for 96 hr ([2]; 200 mg/g in Captex 300-6C): Dissolved; Solubility After 24 hr [2, 13]: Dissolved; Solubility After 96 hr [2, 13]: Dissolved; Solubility Cycled to 22° C. for 24 hr prior to 5° C. cycle for 96 hr ([2]; 200 mg/g in Captex 300 EP): Dissolved; Solubility After 24 hr [2, 14]: Dissolved; Solubility After 96 hr [2, 14]: Dissolved; Solubility Cycled to 22° C. for 24 hr prior to 5° C. cycle for 96 hr ([2]; 200 mg/g in Corn): Precipitated at 5 °C after 72 hr; Solubility After 24 hr ([2]; 200 mg/g in Corn at 40° C.): Dissolved; Solubility After 96 hr ([2]; 200 mg/g in Corn at 40° C.): Dissolved; Solubility Cycled to 22° C. for 24 hr prior to 5° C. cycle for 96 hr ([2]; 200 mg/g in Labrafac): Precipitated at 5 °C after 4 hr; Solubility After 24 hr ([2]; 200 mg/g in Labrafac at 40° C.): Dissolved; Solubility After 96 hr ([2]; 200 mg/g in Labrafac at 40° C.): Dissolved; Solubility Cycled to 22° C. for 24 hr prior to 5° C. cycle for 96 hr ([2]; 200 mg/g in Labrafil 1944 CS): Precipitated at 5 °C after 4 hr; Solubility After 24 hr [2, 15]: Dissolved; Solubility After 96 hr [2, 15]: Dissolved; Solubility Cycled to 22° C. for 24 hr prior to 5° C. cycle for 96 hr ([2]; 200 mg/g in Labrafil M 125CS): Precipitated at 5 °C after 24 hr; Solubility After 96 hr ([2]; 200 mg/g in Labrafil M 125CS at 40° C.): Dissolved; Solubility Cycled to 22° C. for 24 hr prior to 5° C. cycle for 96 hr ([2]; 200 mg/g in Labrasol): Precipitated at RT not tested; Solubility After 24 hr ([2]; 200 mg/g in Labrasol at 40° C.): Dissolved; Solubility After 96 hr ([2]; 200 mg/g in Labrasol at 40° C.): Dissolved; Solubility Cycled to 22° C. for 24 hr prior to 5° C. cycle for 96 hr ([2]; 200 mg/g in Olive): Precipitated at 5 °C after 4 hr; Solubility After 24 hr ([2]; 200 mg/g in Olive at 40° C.): Dissolved; Solubility After 96 hr ([2]; 200 mg/g in Olive at 40° C.): Dissolved; Solubility Cycled to 22° C. for 24 hr prior to 5° C. cycle for 96 hr ([2]; 200 mg/g in Safflower): Dissolved; Solubility After 24 hr [2, 16]: Dissolved; Solubility After 96 hr [2, 16]: Dissolved; Solubility Cycled to 22° C. for 24 hr prior to 5° C. cycle for 96 hr ([2]; 200 mg/g in Sesame): Precipitated at 5 °C after 5 hr; Solubility After 24 hr ([2]; 200 mg/g in Sesame at 40° C.): Dissolved; Solubility After 96 hr ([2]; 200 mg/g in Sesame at 40° C.): Dissolved; Solubility Cycled to 22° C. for 24 hr prior to 5° C. cycle for 96 hr ([2]; 200 mg/g in Soybean): Dissolved; Solubility After 24 hr ([2]; 200 mg/g in Soybean at 40° C.): Dissolved; Solubility After 96 hr ([2]; 200 mg/g in Soybean at 40° C.): Dissolved; Solubility and thermal stability in single oils (summary) ([2]; in safflower oil, soybean oil, canola oil and the medium chain triglycerides): soluble and thermally stable
